Data on 19 compounds can be found in US7741493B2, “Heterocyclic compounds as P2X7 ion channel blockers” (Aventis Pharmaceuticals Inc., priority 2003, dated 2010).

As usually defined, the IC50 is the concentration at which inhibition is half-maximal.

Structures can show the parent of a compound that is named as a salt.

In this assay the target is T1, P2X7 (Homo sapiens, UniProt Q99572).
T1 sequence (Q99572 1-595): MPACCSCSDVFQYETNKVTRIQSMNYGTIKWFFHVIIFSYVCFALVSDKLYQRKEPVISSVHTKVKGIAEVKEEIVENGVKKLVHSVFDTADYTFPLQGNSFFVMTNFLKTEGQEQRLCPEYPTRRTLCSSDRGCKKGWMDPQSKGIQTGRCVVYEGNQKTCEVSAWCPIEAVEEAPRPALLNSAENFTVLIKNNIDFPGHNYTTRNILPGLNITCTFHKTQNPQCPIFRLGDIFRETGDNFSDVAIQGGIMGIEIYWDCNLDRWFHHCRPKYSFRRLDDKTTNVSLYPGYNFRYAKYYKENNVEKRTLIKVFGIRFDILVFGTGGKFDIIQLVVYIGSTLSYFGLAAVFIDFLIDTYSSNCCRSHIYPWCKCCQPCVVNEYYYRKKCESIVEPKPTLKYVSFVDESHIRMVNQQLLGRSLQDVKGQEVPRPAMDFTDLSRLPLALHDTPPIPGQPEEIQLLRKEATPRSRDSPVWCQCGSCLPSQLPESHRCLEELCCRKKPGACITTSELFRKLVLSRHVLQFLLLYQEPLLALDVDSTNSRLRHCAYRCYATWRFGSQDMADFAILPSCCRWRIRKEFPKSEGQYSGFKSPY
As to the kind of experiment: YO-PRO-1 dye uptake assay in U373 cells stably expressing P2X7. The class given is cell-based. Also noted: The complete open reading frame of human P2X7 was amplified from Incyte clone 148057; expressed in transfected cells. As to conditions: dye uptake through P2X7, U373 cells, 300 μM BzATP, 5 μM YO-PRO-1, test compounds 30 nM to 3 μM; read-out: IC50. The procedure: Following a 24-hr exposure to DNA, cells were trypsinized and re-seeded at low density in the presence of […] G418. After incubation for 2 weeks, isolated clones were selected with cloning cylinders and replated in […] G418. Cell clones were then expanded. Clones were screened for P2X7 by applying ATP and recording the resultant current using patch clamp electrophysiology.
U373 cells stably expressing P2X7 were used to screen drugs via a dye uptake assay. Cells were plated overnight on collagen coated 96-well plates at a density of 35,000 cells per well. The following day, culture media was replaced with Mg^++ and Ca^++-free Hank's balanced salt solution and various concentrations of test compounds ranging from 30 nM to 3 μM. Cells were then allowed to incubate with test compounds at 37° C. for 20 minutes. Following this incubation period YO-PRO-1 dye (Molecular Probes, Eugene, Oreg., final concentration 5 μM) and 2′-& 3′-O-(4-Benzolybenzoyl)-Adenosine 5′-triphosphate (Sigma Chemical, St Louis, Mo., final concentration 300 μM) were added to the cells sequentially. Cells were then incubated at 37° C. for 1.5 hours. […] Fluorescence in the presence of test substances was compared to that in the absence of test substances (control).
For the compound `CC(C)(C1=N[C@@H](c2ccccc2)[C@@H](c2ccccc2)N1)c1ccc(Cl)cc1`, the IC50 worked out at 537 nM. Next, `CC(C)(CC1=N[C@@H](c2ccccc2)[C@@H](c2ccccc2)N1)c1ccccc1`: 10 nM; `C[C@@H](CC1=N[C@@H](c2ccccc2)[C@@H](c2ccccc2)N1)c1ccccc1`: 13 nM. Take `C[C@@]1(c2ccccc2)N=C(COC2CCOc3ccccc32)N[C@@H]1c1ccccc1` (stereo partly shown): the IC50 came to 490 nM.

For `C[C@@]1(c2cccc(F)c2)N=C(NCc2cccc(F)c2)N[C@@H]1c1cccc(F)c1`, the IC50 came out at 49 nM.

As for `C[C@@]1(c2ccc(F)cc2)N=C(NCc2ccc(F)cc2)N[C@@H]1c1ccc(F)cc1`, the IC50 is 139 nM.

For the compound `C[C@@]1(c2ccc(F)cc2)N=C(NCc2cccc(F)c2)N[C@@H]1c1ccc(F)cc1`, the concentration for half-maximal inhibition (IC50) was 353 nM. With `C[C@@]1(c2cccc(F)c2)N=C(NCc2ccc(F)cc2)N[C@@H]1c1cccc(F)c1` the figure was 37 nM. With `Fc1ccc(CNC2=N[C@@H](c3ccc(F)cc3)[C@@H](c3ccc(F)cc3)N2)cc1` the figure was 338 nM. Next, `CC(Oc1ccccc1)C1=N[C@@](C)(c2ccccc2)[C@@H](c2ccccc2)N1` (relative stereo) [2-(1-Phenoxyethyl)-cis-4,5-diphenyl-4-methyl-4,5-dihydro-1H-imidazole trifluoroacetate]: 356 nM. Turning to `CC(C1=N[C@](C)(c2ccccc2)[C@H](c2ccccc2)N1)c1ccccc1` (relative stereo) [2-(1-Phenyl-1-ethyl)-cis-4,5-diphenyl-4-methyl-4,5-dihydro-1H-imidazole trifluoroacetate], the IC50 amounted to 68 nM. For the compound `C[C@]1(c2ccccc2)N=C(Cc2ccc(F)cc2F)N[C@H]1c1ccccc1` (relative stereo) [2-(2,4-Difluorobenzyl)-cis-4,5-diphenyl-4-methyl-4,5-dihydro-1H-imidazole trifluoroacetate], the IC50 was determined as 16 nM. For `C[C@]1(c2ccccc2)N=C(Cc2ccc(F)c(F)c2)N[C@H]1c1ccccc1` (relative stereo) [2-(3,4-Difluorobenzyl)-cis-4,5-diphenyl-4-methyl-4,5-dihydro-1H-imidazole trifluoroacetate], the IC50 is 19 nM. Next, `C[C@]1(c2ccccc2)N=C(Cc2cccc(Cl)c2)N[C@H]1c1ccccc1` (relative stereo) [2-(3-Chlorobenzyl)-cis-4,5-diphenyl-4-methyl-4,5-dihydro-1H-imidazole trifluoroacetate]: 42 nM; `C[C@@]1(c2cccc(F)c2)N=C(Cc2ccc(F)cc2)N[C@@H]1c1cccc(F)c1` (relative stereo) [2-(4-Fluorobenzyl)-cis-4,5-bis-(3-fluorophenyl)-4-methyl-4,5-dihydro-1H-imidazole trifluoroacetate]: 32 nM. As to `C[C@]1(c2ccccc2)N=C(Cc2ccc(F)cc2)N[C@H]1c1ccccc1` (relative stereo) [2-(4-Fluorobenzyl)-cis-4,5-diphenyl-4-methyl-4,5-dihydro-1H-imidazole trifluoroacetate], the IC50 turned out to be 44 nM. Regarding `C[C@]1(c2ccccc2)N=C(OCC2CCCCC2)N[C@H]1c1ccccc1` (relative stereo) [2-(Cyclohexylmethoxy)-cis-4,5-diphenyl-4-methyl-4,5-dihydro-1H-imidazole trifluoroacetate], the IC50 came out at 275 nM. On to `C[C@@]1(c2cccc(F)c2)N=C(CCc2ccccc2)N[C@@H]1c1cccc(F)c1` (relative stereo) [2-Phenethyl-cis-4,5-bis-(3-fluorophenyl)-4-methyl-4,5-dihydro-1H-imidazole hydrochloride], for which the IC50 was 66 nM.

With `CC(C1=N[C@](C)(c2ccccc2)[C@H](c2ccccc2)N1)c1ccc(Cl)cc1` (relative stereo) [2-[1-(4-Chlorophenyl)-1-ethyl]-cis-4,5-diphenyl-4-methyl-4,5-dihydro-1H-imidazole trifluoroacetate], the IC50 is 331 nM.
